From the supplement of paper PMC11451515

Experiments:
Settings in all cases: 48 h
[1] = system: NOMO1; experiment: AUC of viability dose-response curve (% viability x log10 dose units); higher = less sensitive
Procedure, shortened: (§1)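 Leukemia cells adapted to each medium were seeded in 1536-well plates (500 or 1000 cells/well). They were dosed with library compounds in DMSO at 11 threefold doses, 47 μM to 0.79 nM, for 48 h at 37°C. CellTiter-Glo One luminescence was normalised per plate to DMSO and cell-free wells. Area under the curve was integrated by trapezoidal rule over log10 doses on a four-parameter log-logistic fit; curves exceeding full viability were scaled and curves failing quality control removed.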

[2] = system: P12-Ichikawa; experiment: as above
Procedure, shortened: as §1

[3] = system: SEM cells; experiment: as above
Procedure, shortened: as §1

[4] = system: NOMO1; experiment: cell viability relative to DMSO control; higher = less cytotoxic
Procedure, shortened: (§2)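 NOMO1, SEM and P12-Ichikawa leukemia cells spent at least four passages adapting to each medium before use. They were seeded at 500 cells/well (NOMO1, SEM) or 1000 cells/well (P12-Ichikawa) in 5 μl in 1536-well plates and pin-dosed with library compounds in DMSO at 11 threefold steps from 47 μM down to 0.79 nM. After 48 h at 37°C, CellTiter-Glo One luminescence was read. Viability is reported as a percentage of the DMSO wells on each plate, with cell-free wells as background.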

[5] = system: P12-Ichikawa; experiment: as above
Procedure, shortened: as §2

[6] = system: SEM cells; experiment: as above
Procedure, shortened: as §2

C=C1/C(=C\C=C2/CCC[C@]3(C)[C@@H]([C@H](C)/C=C/[C@H](C)C(C)C)CC[C@@H]23)C[C@@H](O)C[C@@H]1O
AUC of viability dose-response curve
Settings	[1]	[2]	[3]
HPLM + 10% dialyzed FBS	398	399	446
RPMI 5 mM glucose + 10% FBS	423	404	438
RPMI 5 mM glucose + 10% dialyzed FBS	416	408	450

C[C@H]1[C@H](OC(=O)CCC(=O)O)O[C@@H]2O[C@@]3(C)CC[C@H]4[C@H](C)CC[C@@H]1[C@@]24OO3
AUC of viability dose-response curve
Settings	[1]	[2]	[3]
HPLM + 10% dialyzed FBS	350	372	393
RPMI 5 mM glucose + 10% FBS	342	360	371
RPMI 5 mM glucose + 10% dialyzed FBS	335	351	378

Cc1ccc(CN2CCNCC2)cc1NC(=O)CNc1ccc(F)c(F)c1
AUC of viability dose-response curve
Settings	[1]	[2]	[3]
HPLM + 10% dialyzed FBS	435	454	447
RPMI 5 mM glucose + 10% FBS	459	457	464
RPMI 5 mM glucose + 10% dialyzed FBS	444	445	431

CC(=O)Nc1nc(C)c(-c2ccc(Cl)c([S+](=O)([O-])NCCO)c2)s1
AUC of viability dose-response curve
Settings	[1]	[2]	[3]
HPLM + 10% dialyzed FBS	364	374	366
RPMI 5 mM glucose + 10% FBS	385	326	345
RPMI 5 mM glucose + 10% dialyzed FBS	362	340	344

O=C(NC[C@H](O)CN1CCc2ccccc2C1)c1cc(NC2COC2)ncn1
cell viability [%]
Settings	[4]	[5]	[6]
HPLM + 10% dialyzed FBS, 0.000781 µM	93.5	84.8	58.8
HPLM + 10% dialyzed FBS, 0.00234 µM	117	87.8	84.9
HPLM + 10% dialyzed FBS, 0.00702 µM	173	87.5	91.5
HPLM + 10% dialyzed FBS, 0.0211 µM	29.5	86.8	81.6
HPLM + 10% dialyzed FBS, 0.0632 µM	64.5	85.4	86.3
HPLM + 10% dialyzed FBS, 0.19 µM	99.2	86.1	75
HPLM + 10% dialyzed FBS, 0.569 µM	101	83.6	68.5
HPLM + 10% dialyzed FBS, 1.71 µM	72.7	78.9	71.6
HPLM + 10% dialyzed FBS, 5.12 µM	70.7	80	78.4
HPLM + 10% dialyzed FBS, 15.4 µM	56.1	80.6	68.6
HPLM + 10% dialyzed FBS, 46.1 µM	38.6	71.1	26.9
RPMI 5 mM glucose + 10% FBS, 0.000781 µM	92.9	74	71.9
RPMI 5 mM glucose + 10% FBS, 0.00234 µM	80.4	83.2	145
RPMI 5 mM glucose + 10% FBS, 0.00702 µM	88.2	80	124
RPMI 5 mM glucose + 10% FBS, 0.0211 µM	99.3	85.9	141
RPMI 5 mM glucose + 10% FBS, 0.0632 µM	83	86.2	132
RPMI 5 mM glucose + 10% FBS, 0.19 µM	89.9	84.8	121
RPMI 5 mM glucose + 10% FBS, 0.569 µM	94.4	77.3	108
RPMI 5 mM glucose + 10% FBS, 1.71 µM	92.6	74	108
RPMI 5 mM glucose + 10% FBS, 5.12 µM	84.3	70.4	114
RPMI 5 mM glucose + 10% FBS, 15.4 µM	75.1	76.4	88.5
RPMI 5 mM glucose + 10% FBS, 46.1 µM	74.2	59.3	47.2
RPMI 5 mM glucose + 10% dialyzed FBS, 0.000781 µM	83.5	80.6	59
RPMI 5 mM glucose + 10% dialyzed FBS, 0.00234 µM	92.8	88.6	107
RPMI 5 mM glucose + 10% dialyzed FBS, 0.00702 µM	93.5	84.6	100
RPMI 5 mM glucose + 10% dialyzed FBS, 0.0211 µM	101	87.9	91.1
RPMI 5 mM glucose + 10% dialyzed FBS, 0.0632 µM	84.7	88.1	73.8
RPMI 5 mM glucose + 10% dialyzed FBS, 0.19 µM	91.8	86.9	81
RPMI 5 mM glucose + 10% dialyzed FBS, 0.569 µM	68.4	77.6	80.5
RPMI 5 mM glucose + 10% dialyzed FBS, 1.71 µM	66.4	79.1	75.2
RPMI 5 mM glucose + 10% dialyzed FBS, 5.12 µM	81.4	78.7	84.2
RPMI 5 mM glucose + 10% dialyzed FBS, 15.4 µM	67.3	72	65.1
RPMI 5 mM glucose + 10% dialyzed FBS, 46.1 µM	63.3	66.3	25.2

[2]
Settings	AUC of viability dose-response curve
HPLM + 10% dialyzed FBS	397
RPMI 5 mM glucose + 10% FBS	372
RPMI 5 mM glucose + 10% dialyzed FBS	388

Cc1c(O)cccc1C(=O)N[C@@H](CSc1ccccc1)[C@H](O)CN1C[C@H]2CCCC[C@H]2C[C@H]1C(=O)NC(C)(C)C
AUC of viability dose-response curve
Settings	[1]	[2]	[3]
HPLM + 10% dialyzed FBS	465	447	426
RPMI 5 mM glucose + 10% FBS	459	459	453
RPMI 5 mM glucose + 10% dialyzed FBS	455	461	455

C=CC1=C(C(=O)O)N2C(=O)[C@@H](NC(=O)/C(=N\O)c3csc(N)n3)[C@H]2SC1
cell viability [%]
Settings	[4]	[5]	[6]
HPLM + 10% dialyzed FBS, 0.000781 µM	82.9	100	80.6
HPLM + 10% dialyzed FBS, 0.00234 µM	110	115	81.9
HPLM + 10% dialyzed FBS, 0.00702 µM	119	79.3	20.4
HPLM + 10% dialyzed FBS, 0.0211 µM	102	116	86.1
HPLM + 10% dialyzed FBS, 0.0632 µM	123	131	87.3
HPLM + 10% dialyzed FBS, 0.19 µM	109	122	98.9
HPLM + 10% dialyzed FBS, 0.569 µM	129	121	89.8
HPLM + 10% dialyzed FBS, 1.71 µM	129	117	91.1
HPLM + 10% dialyzed FBS, 5.12 µM	110	125	83.1
HPLM + 10% dialyzed FBS, 15.4 µM	113	35.2	93.4
HPLM + 10% dialyzed FBS, 46.1 µM	118	123	95.7
RPMI 5 mM glucose + 10% FBS, 0.000781 µM	104	101	87.5
RPMI 5 mM glucose + 10% FBS, 0.00234 µM	119	112	107
RPMI 5 mM glucose + 10% FBS, 0.00702 µM	124	66.1	10.3
RPMI 5 mM glucose + 10% FBS, 0.0211 µM	118	116	104
RPMI 5 mM glucose + 10% FBS, 0.0632 µM	117	117	96.7
RPMI 5 mM glucose + 10% FBS, 0.19 µM	127	123	109
RPMI 5 mM glucose + 10% FBS, 0.569 µM	116	124	102
RPMI 5 mM glucose + 10% FBS, 1.71 µM	120	115	108
RPMI 5 mM glucose + 10% FBS, 5.12 µM	125	119	121
RPMI 5 mM glucose + 10% FBS, 15.4 µM	134	124	98.7
RPMI 5 mM glucose + 10% FBS, 46.1 µM	138	109	106
RPMI 5 mM glucose + 10% dialyzed FBS, 0.000781 µM	98.2	99.2	83.1
RPMI 5 mM glucose + 10% dialyzed FBS, 0.00234 µM	105	118	86.6
RPMI 5 mM glucose + 10% dialyzed FBS, 0.00702 µM	115	75.5	27.4
RPMI 5 mM glucose + 10% dialyzed FBS, 0.0211 µM	118	112	108
RPMI 5 mM glucose + 10% dialyzed FBS, 0.0632 µM	119	124	94.5
RPMI 5 mM glucose + 10% dialyzed FBS, 0.19 µM	125	117	107
RPMI 5 mM glucose + 10% dialyzed FBS, 0.569 µM	140	117	97.1
RPMI 5 mM glucose + 10% dialyzed FBS, 1.71 µM	124	129	101
RPMI 5 mM glucose + 10% dialyzed FBS, 5.12 µM	121	115	116
RPMI 5 mM glucose + 10% dialyzed FBS, 15.4 µM	109	123	112
RPMI 5 mM glucose + 10% dialyzed FBS, 46.1 µM	107	125	101

AUC of viability dose-response curve
Settings	HPLM + 10% dialyzed FBS	RPMI 5 mM glucose + 10% FBS	RPMI 5 mM glucose + 10% dialyzed FBS
[1]	467	438	462
[3]	397	435	433
